# According to patent US12090140B2, “Non-sedating dexmedetomidine treatment regimens” (priority 2023, dated 2024):
# Where two headings read alike, the source gives them in different places.
# Assays:
# [1] = system: mouse lymphoma cell; conditions: mammalian mouse lymphoma cell forward mutation assay; cited from earlier work
# [2] = system: male or female rats; conditions: daily subcutaneous injections up to 54 mcg/kg; cited from earlier work
# [3] = system: bone marrow of CD-1 and NMRI mice; conditions: cited from earlier work
# [4] = system: human lymphocyte; conditions: cited from earlier work
# [5] = human, in vivo, iv
# Text: Mean infusion rate is 0.36 mcg/kg/hr with the maximum rate ranging from about 0.2 mcg/kg/hr to about 0.6 mcg/kg/hr (see FIGS. 18 to 20).
# [6] = system: cytochrome P450; conditions: human liver microsomes; cited from earlier work
# [7] = cited from earlier work
# [8] = system: plasma proteins; conditions: cited from earlier work
# [9] = system: pregnant rats; conditions: rat, cited from earlier work
# [10] = system: bacterial reverse mutation; conditions: in vitro Ames bacterial reverse mutation test; cited from earlier work
# [11] = system: pregnant rabbits; conditions: rabbit; intravenous up to 96 mcg/kg/day, GD 6 to 18; cited from earlier work
# [12] = system: pregnant rats and offspring; conditions: rat, cited from earlier work
# [13] = cited from earlier work; remark: listed apart in the source
# [14] = system: agitation in subjects suffering from schizophrenia
# [15] = system: adult patients and healthy adult subjects; conditions: loading IV bolus of undiluted drug, 19.4 mcg/kg; one patient; cited from earlier work
# [16] = radiolabeled, intravenous, after nine days
compound,measurement,setting,value
"Cc1cccc([C@H](C)c2cnc[nH]2)c1C [Dexmedetomidine, (+) 4-(S)-[1-(2,3-dimethylphenyl)ethyl]-1H-imidazole]",Mutagenicity,[1],not mutagenic
same,Fertility,[2],not affected
same,Clastogenicity,[3]; CD-1 mice,not clastogenic
same,Clastogenicity,[3]; NMRI mice,some evidence for clastogenicity
same,Clastogenicity,[4]; absence or presence of human liver S9 metabolic activation,not clastogenic
same,Clastogenicity,[4]; presence of rat liver S9 metabolic activation,weak clastogenic response
same,Time to reach Cmax,[5],15 to 105 min
same,Cytochrome P450 mediated drug interactions,[6],no evidence of cytochrome P450 mediated drug interactions
same,"Pharmacokinetics (Cmax, Tmax, AUC, t½, CL, and V) in renal impairment versus normal renal function",[7]; creatinine clearance <30 mL/minute,not significantly different
same,Extent of biotransformation,[7]; direct glucuronidation and cytochrome P450 (primarily CYP2A6),almost complete biotransformation
same,Clearance,[7]; intravenous administration,approximately 39 L/h
same,Steady-state volume of distribution (Vss),[7]; intravenous administration,approximately 118 liters
same,Radioactivity recovered in the feces,[7]; [16],4%
same,Radioactivity recovered in the urine,[7]; [16],95%
same,"Aliphatic hydroxylation products, share of the dose in urine","[7]; radiolabeled, intravenous",approximately 14%
same,"N-methylation products, share of the dose in urine","[7]; radiolabeled, intravenous",approximately 18%
same,"Products of N-glucuronidation, share of cumulative urinary excretion","[7]; radiolabeled, intravenous",approximately 34%
same,Share of urinary radioactivity excreted within 24 hours after the infusion,"[7]; radiolabeled, intravenous",Approximately 85%
same,Unchanged drug in the urine,"[7]; radiolabeled, intravenous",No unchanged dexmedetomidine was detected
same,Urinary metabolites not identified,"[7]; radiolabeled, intravenous",Approximately 28%
same,"Clearance in hepatic impairment (Child-Pugh Class A, B, or C)",[7]; versus normal hepatic function,decreased
same,Fraction bound to plasma proteins in hepatic impairment versus healthy subjects,[8],significantly decreased
same,Average protein binding,[8]; plasma of healthy male and female subjects,94%
same,Malformations,[9]; any dose level,No malformations
same,Embryo-fetal findings,[9]; subcutaneous 20 mcg/kg/day,No embryo-fetal toxicity
same,Embryo-fetal findings,"[9]; subcutaneous 200 mcg/kg/day, GD 5 to 16, with maternal toxicity",Increased post-implantation losses and reduced live pups
same,Mutagenicity,[10],not mutagenic
same,Malformation or embryo-fetal toxicity,[11],No malformation or embryo-fetal toxicity
same,Developmental findings when first generation offspring were mated,[12]; 32 mcg/kg/day,Decreased viability of second generation offspring and an increase in early implantation loss along with delayed motor development
same,Developmental findings,"[12]; subcutaneous 8 mcg/kg/day, GD 16 to PND 25",Reduced pup and adult offspring weights and grip strength
same,Placental transfer,[13]; available data in humans,crosses the placenta
same,Presence in human milk,"[13]; following intravenous administration, published literature",presence of dexmedetomidine in human milk
same,PEC value,"[14]; Patient 1 (treatment arm), 0 min after infusion start",9
same,PEC value,"[14]; Patient 1 (treatment arm), 15 min after infusion start",5
same,PEC value,"[14]; Patient 2 (treatment arm), 0 min after infusion start",16
same,PEC value,"[14]; Patient 2 (treatment arm), 15 min after infusion start",13
same,PEC value,"[14]; Patient 2 (treatment arm), 30 min after infusion start",12
same,PEC value,"[14]; Patient 2 (treatment arm), 45 min after infusion start",11
same,PEC value,"[14]; Patient 2 (treatment arm), 60 min after infusion start",9
same,PEC value,"[14]; Patient 2 (treatment arm), 75 min after infusion start",7
same,PEC value,"[14]; Patient 3 (treatment arm), 0 min after infusion start",12
same,PEC value,"[14]; Patient 3 (treatment arm), 15 min after infusion start",12
same,PEC value,"[14]; Patient 3 (treatment arm), 30 min after infusion start",10
same,PEC value,"[14]; Patient 3 (treatment arm), 45 min after infusion start",7
same,PEC value,"[14]; Patient 3 (treatment arm), 60 min after infusion start",6
same,PEC value,"[14]; Patient 4 (treatment arm), 0 min after infusion start",9
same,PEC value,"[14]; Patient 4 (treatment arm), 15 min after infusion start",9
same,PEC value,"[14]; Patient 4 (treatment arm), 30 min after infusion start",8
same,PEC value,"[14]; Patient 4 (treatment arm), 45 min after infusion start",8
same,PEC value,"[14]; Patient 4 (treatment arm), 60 min after infusion start",7
same,PEC value,"[14]; Patient 4 (treatment arm), 75 min after infusion start",7
same,PEC value,"[14]; Patient 4 (treatment arm), 90 min after infusion start",7
same,PEC value,"[14]; Patient 4 (treatment arm), 120 min after infusion start",7
same,PEC value,"[14]; Patient 4 (treatment arm), […] after infusion start",7
same,PEC value,"[14]; Patient 11 (treatment arm), 0 min after infusion start",13
same,PEC value,"[14]; Patient 11 (treatment arm), 15 min after infusion start",13
same,PEC value,"[14]; Patient 11 (treatment arm), 30 min after infusion start",11
same,PEC value,"[14]; Patient 11 (treatment arm), 45 min after infusion start",9
same,PEC value,"[14]; Patient 11 (treatment arm), 60 min after infusion start",9
same,PEC value,"[14]; Patient 11 (treatment arm), 75 min after infusion start",7
same,PEC value,"[14]; Patient 12 (treatment arm), 0 min after infusion start",13
same,PEC value,"[14]; Patient 12 (treatment arm), 15 min after infusion start",13
same,PEC value,"[14]; Patient 12 (treatment arm), 30 min after infusion start",13
same,PEC value,"[14]; Patient 12 (treatment arm), 45 min after infusion start",10
same,PEC value,"[14]; Patient 12 (treatment arm), 60 min after infusion start",10
same,PEC value,"[14]; Patient 12 (treatment arm), 75 min after infusion start",8
same,PEC value,"[14]; Patient 12 (treatment arm), 90 min after infusion start",6
same,PEC value,"[14]; Patient 12 (treatment arm), […] after infusion start",5
same,PEC value,"[14]; Patient 14 (treatment arm), 0 min after infusion start",10
same,PEC value,"[14]; Patient 14 (treatment arm), 15 min after infusion start",9
same,PEC value,"[14]; Patient 14 (treatment arm), 30 min after infusion start",6
same,PEC value,"[14]; Patient 14 (treatment arm), 45 min after infusion start",6
same,PEC value,"[14]; Patient 14 (treatment arm), 60 min after infusion start",5
same,PEC value,"[14]; Patient 14 (treatment arm), 75 min after infusion start",5
same,PEC value,"[14]; Patient 16 (treatment arm), 0 min after infusion start",10
same,PEC value,"[14]; Patient 16 (treatment arm), 15 min after infusion start",9
same,PEC value,"[14]; Patient 16 (treatment arm), 30 min after infusion start",6
same,PEC value,"[14]; Patient 16 (treatment arm), 45 min after infusion start",6
same,PEC value,"[14]; Patient 16 (treatment arm), 60 min after infusion start",7
same,PEC value,"[14]; Patient 16 (treatment arm), 75 min after infusion start",5
same,PEC value,"[14]; Patient 17 (treatment arm), 0 min after infusion start",10
same,PEC value,"[14]; Patient 17 (treatment arm), 15 min after infusion start",8
same,PEC value,"[14]; Patient 17 (treatment arm), 30 min after infusion start",7
same,PEC value,"[14]; Patient 17 (treatment arm), 45 min after infusion start",5
same,Effects of overdose,[15],cardiac arrest
